Series [1] addresses Beta-2 adrenergic receptor (Homo sapiens, UniProt P07550). The experiment in a line: Binding affinity to beta2 adrenergic receptor (unknown origin) by radioligand binding assay.
A further series relates to Rattus norvegicus. The experiment in a line: Antiallodynic activity in streptozocin-induced Sprague-Dawley rat of diabetic neuropathy model assessed as increase in mechanical withdrawal threshold at 10 mg/kg administered via oral gavage and measured for 3 to 4 times at 1 min interval by von Frey assay. In kind it is functional, organism-based.
Series [2] concerns the target T1, Bifunctional epoxide hydrolase 2 (Homo sapiens) (UniProt P34913).
T1 sequence (whole entry): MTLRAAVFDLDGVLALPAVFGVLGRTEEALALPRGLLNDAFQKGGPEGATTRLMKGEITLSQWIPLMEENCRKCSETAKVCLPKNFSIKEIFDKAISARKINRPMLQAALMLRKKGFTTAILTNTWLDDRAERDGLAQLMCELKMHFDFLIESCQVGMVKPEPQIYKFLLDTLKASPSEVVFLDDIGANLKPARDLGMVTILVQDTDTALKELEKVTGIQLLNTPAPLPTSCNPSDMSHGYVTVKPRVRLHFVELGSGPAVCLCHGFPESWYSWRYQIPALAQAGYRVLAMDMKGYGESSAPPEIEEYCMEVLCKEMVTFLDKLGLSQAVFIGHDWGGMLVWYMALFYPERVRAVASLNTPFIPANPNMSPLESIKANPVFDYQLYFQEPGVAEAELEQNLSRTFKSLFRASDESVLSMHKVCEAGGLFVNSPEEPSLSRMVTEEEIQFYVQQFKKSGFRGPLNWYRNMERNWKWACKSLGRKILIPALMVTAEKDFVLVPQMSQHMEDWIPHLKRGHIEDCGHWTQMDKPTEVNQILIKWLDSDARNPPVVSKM
Description: Binding affinity to recombinant human C-terminal soluble epoxide hydrolase-hydrolase domain (222 to 555 residues) expressed in Escherichia coli BL21(DE3) assessed as change in melting temperature at 200 uM by SYPRO orange dye-based differential scanning fluorimetric analysis (Rvb = 57.0 +/- 0.0 degreeC)

The target in series [3] is Beta-1 adrenergic receptor (Homo sapiens, UniProt P08588). The series can be described thus: Binding affinity to beta1 adrenergic receptor (unknown origin) by radioligand binding assay.
A short description of series [4]: Metabolic stability in Sprague-Dawley rat liver microsomes at 10 uM preincubated for 5 mins followed by NADPH addition and measured for 60 mins by HPLC analysis. In kind it is ADME, Microsome. The settings on record: read-out: Stability.
The target in series [5] is T2, Bifunctional epoxide hydrolase 2 (Homo sapiens, UniProt P34913).
T2 sequence (P34913 whole entry): T1 sequence (whole entry)
The experiment in a line: Inhibition of recombinant human full length soluble epoxide hydrolase (1 to 555 residues) expressed in Escherichia coli BL21(DE3) using non-fluorescent PHOME as substrate preincubated for 30 mins followed by substrate addition and measured after 30 mins by fluorescence based assay.

The source made the active and inactive calls.

On to `CC(C)(C)N1CCOC(COc2ccc(NC(=O)NC3CCCCC3)cc2)C1` (configuration not stated), for which the outcome in series [1] and in series [3] was inactive. Moreover, the result in the series with Rattus norvegicus was Active. The Tm in series [2] stood at 65.1 °C. Besides, the remaining at 1 h, 10 µM in series [4] was determined as 71%. In addition, in series [5] (read-out: IC50), the half-maximal inhibitory concentration (IC50) amounted to 0.077 µM.
For `CC(C)NCC(O)COc1cccc2ccccc12` (configuration not stated) [PROPRANOLOL], in series [2], the Tm turned out to be 56.3 °C. The remaining at 1 h, 10 µM in series [4] is 37%. Further, the IC50 entry in series [5] is given as “Not Active”.
Consider `CC(C)(C)NCC(O)COc1ccc(NC(=O)NC2CCCCC2)cc1` (configuration not stated) [TALINOLOL], for which the Ki in series [1] was 0.9 µM; in series [3], 0.24 µM. For the same compound, the remaining at 1 h, 10 µM in series [4] was determined as 86%.

(Values after ChEMBL document CHEMBL4304765 (ACS Med Chem Lett, 2019).)
